Data on 2 compounds can be found in patent publication US20110182830A1, “INHALATION DRUG PRODUCTS, SYSTEMS AND USES” (Schering Corporation, priority 2008, published 2011).

A value given as a limit tells only on which side of the number the result lay.

The nature of series [1]: Andersen Cascade Impactor (ACI) with USP throat, aerodynamic particle size distribution, pMDI alone vs pMDI with chamber, continuous flow 28.3 L/min. As to conditions: for reduction in FPD (μg) as compared to the pMDI alone: pMDI with OPTICHAMBER
The series is classed as physicochemical. The procedure:
Pressurized MDI products were tested alone and as an inhalation system/drug product which included a pMDI in combination with one chamber such as the A[…]-STAT Plus™ (volume=148 mL), A[…]® (volume=[…]), VORTEX® AND OPTICHAMBER®.
An Andersen Cascade Impactor (ACI) with USP throat was used to measure aerodynamic particle size distribution. Two impactor configurations were used for the two flow rates. Plates 0 through 7 were used for sampling at 28.3 L/min; plates—1 through 6 were used for sampling at 60 L/min. The effective cut off diameters for the plates in each configuration were provided by the manufacturer. Total delivered dose values report the total mass of active ingredient recovered from the impactor (throat, plates and filter). Fine particle dose values report the total mass of active ingredient with aerodynamic diameter less than 4.7 μm.
FIGS. 1 and 2 show throat, fine particle dose and total delivered dose recoveries for both active ingredients, as measured by ACI under continuous flow at 28.3 L/min. Recoveries are shown for different spacer devices and the pMDI, as indicated in the legends. Data points represent mean values (n=5); error bars indicate one standard deviation.

The conditions of series [2]: cited from earlier work.
The conditions of series [3]: cited from earlier work. The source holds these as a separate data set.
Where [4] appears, read: pMDI with AEROCHAMBER Z-STAT PLUS.

Take `COc1ccc(CC(C)NCC(O)c2ccc(O)c(NC=O)c2)cc1.O.O.O=C(O)/C=C/C(=O)O` (racemic) [formoterol fumarate, (±)2-hydroxy-5-[(1RS)-1-hydroxy-2-[[(1RS)-2-(4-methoxyphenyl)-1methylethyl]-amino]ethyl] formanilide fumarate dihydrate]: the “difference in fine particle dose (FPD, <4.7 μm) vs pMDI alone” value (“difference in fine particle dose” below) in series [1] (pMDI with AEROCHAMBER MAX) is at most 15%. Besides, the “difference in fine particle dose” value in series [1] (setting [4]) was “less than 5%”. In addition, the “reduction in FPD (μg) as compared to the pMDI alone” value in series [1] is listed as “about 30%”. The “difference in fine particle dose” value in series [1] (pMDI with VORTEX) is given as at most 20%. For the same compound, in series [2], the solubility in acetone result is “practically insoluble”, the solubility in ethanol result is reported as “sparingly soluble”, the solubility in isopropanol result is given as “sparingly soluble” and the solubility in methanol entry is “soluble”. Further, the solubility in water result in series [2] was “slightly soluble”. In series [2] (diethyl ether), the “solubility in diethyl ether” value is given as “practically insoluble”. For the same compound, in series [2] (ethyl acetate), the “solubility in ethyl acetate” value is reported as “practically insoluble”. Besides, the “solubility in glacial acetic acid” value in series [2] (glacial acetic acid) was “freely soluble”.

In the case of `C[C@@H]1C[C@H]2[C@@H]3CCC4=CC(=O)C=C[C@]4(C)[C@@]3(Cl)[C@@H](O)C[C@]2(C)[C@@]1(OC(=O)c1ccco1)C(=O)CCl` [mometasone furoate, 9,21-Dichloro-11(beta), 17-dihydroxy-16(alpha)-methylpregna-1,4-diene-3,20-dione 17-(2 furoate)], the “difference in fine particle dose” value in series [1] (pMDI with AEROCHAMBER MAX) was at most 15%. Also, the “difference in fine particle dose” value in series [1] (setting [4]) is recorded as “less than 5%”. Further, the “reduction in FPD (μg) as compared to the pMDI alone” value in series [1] was “about 30%”. Besides, the “difference in fine particle dose” value in series [1] (pMDI with VORTEX) is listed as at most 20%. Further, the “reduction of deposition in the throat portion of the ACI” value in series [1] (use of several of the chambers vs pMDI alone) is reported as “about 90%”. Moreover, in series [2], the solubility in acetone result was “soluble”, the solubility in ethanol result was “slightly soluble”, the solubility in isopropanol entry is on record as “slightly soluble” and the solubility in methanol result is “slightly soluble”. The solubility in water result in series [2] is “practically insoluble”. Besides, in series [2] (chloroform), the solubility in chloroform result is on record as “soluble”. Further, in series [2] (tetrahydrofuran), the solubility in tetrahydrofuran entry was “freely soluble”. For the same compound, the “partition coefficient between octanol and water” value in series [3] is on record as “greater than 5000”.
